# Test results published in patent US12077503B2, “Substituted cyclic amides and their use as herbicides” (FMC CORPORATION, priority 2015, dated 2024).
# Columns and labels:
# Format in all cases: in vivo
# [1] = tested on: velvetleaf (Abutilon theophrasti); assay: Test G Pre-Emergence Protocol; conditions: Abutilon theophrasti, pre-emergence, 312 h, evaluated after 13 days; for pest or weed control at 15.625 g/ha: 15.625 g ai/ha; for pest or weed control at 15.625 g/ha / pest or weed control at 250 g/ha: read-out: Velvetleaf damage rating (100=total damage to plant; 0=no damage to plant); for pest or weed control at 62.5 g/ha: 62.5 g ai/ha, 100=total damage to plant, 0=no damage to plant, read-out: Velvetleaf damage rating; for pest or weed control at 250 g/ha: 250 g ai/ha
# Method in brief: (§1)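 Scores are visual damage ratings from 0 (no damage) to 100 (total plant kill), taken 13 days after treatment. Compound was sprayed one day post-sowing at 15.625, 62.5 or 250 g/ha in 50:50 acetone/water with 0.5% Tween 20.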
# corn (Zea mays) [2] = assay: Test G Pre-Emergence Protocol; conditions: Zea mays, pre-emergence, 312 h, evaluated after 13 days; for plant injury at 15.625 g/ha: 15.625 g ai/ha; for plant injury at 15.625 g/ha / plant injury at 250 g/ha: read-out: Corn damage rating (100=total damage to plant; 0=no damage to plant); for plant injury at 62.5 g/ha: 62.5 g ai/ha, 100=total damage to plant, 0=no damage to plant, read-out: Corn damage rating; for plant injury at 250 g/ha: 250 g ai/ha
# Method in brief: as §1
# [3] = tested on: giant foxtail (Setaria faberi); assay: Test G Pre-Emergence Protocol; conditions: Setaria faberi, pre-emergence, 312 h, evaluated after 13 days; for pest or weed control at 15.625 g/ha: 15.625 g ai/ha; for pest or weed control at 15.625 g/ha / pest or weed control at 250 g/ha: read-out: Foxtail, Giant damage rating (100=total damage to plant; 0=no damage to plant); for pest or weed control at 62.5 g/ha: 62.5 g ai/ha, 100=total damage to plant, 0=no damage to plant, read-out: Foxtail, Giant damage rating; for pest or weed control at 250 g/ha: 250 g ai/ha
# Method in brief: as §1
# [4] = tested on: barnyardgrass (Echinochloa crus-galli); assay: Test G Pre-Emergence Protocol; conditions: Echinochloa crus-galli, pre-emergence, 312 h, evaluated after 13 days; for pest or weed control at 15.625 g/ha: 15.625 g ai/ha; for pest or weed control at 15.625 g/ha / pest or weed control at 250 g/ha: read-out: Barnyardgrass damage rating (100=total damage to plant; 0=no damage to plant); for pest or weed control at 62.5 g/ha: 62.5 g ai/ha, 100=total damage to plant, 0=no damage to plant, read-out: Barnyardgrass damage rating; for pest or weed control at 250 g/ha: 250 g ai/ha
# Method in brief: as §1
# [5] = tested on: ivy-leaved morning glory (Ipomoea hederacea); assay: Test G Pre-Emergence Protocol; conditions: Ipomoea, pre-emergence, 312 h, evaluated after 13 days; for pest or weed control at 15.625 g/ha: 15.625 g ai/ha; for pest or weed control at 15.625 g/ha / pest or weed control at 250 g/ha: read-out: Morningglory, Ivy-leaved damage rating (100=total damage to plant; 0=no damage to plant); for pest or weed control at 62.5 g/ha: 62.5 g ai/ha, 100=total damage to plant, 0=no damage to plant, read-out: Morningglory, Ivy-leaved damage rating; for pest or weed control at 250 g/ha: 250 g ai/ha
# Method in brief: as §1
# [6] = tested on: redroot pigweed (Amaranthus retroflexus); assay: Test G Pre-Emergence Protocol; conditions: Amaranthus retroflexus, pre-emergence, 312 h, evaluated after 13 days; for pest or weed control at 15.625 g/ha: 15.625 g ai/ha; for pest or weed control at 15.625 g/ha / pest or weed control at 250 g/ha: read-out: Pigweed, Redroot damage rating (100=total damage to plant; 0=no damage to plant); for pest or weed control at 62.5 g/ha: 62.5 g ai/ha, 100=total damage to plant, 0=no damage to plant, read-out: Pigweed, Redroot damage rating; for pest or weed control at 250 g/ha: 250 g ai/ha
# Method in brief: as §1
# [7] = tested on: velvetleaf (Abutilon theophrasti); assay: Test G Post-Emergence Protocol; conditions: Abutilon theophrasti, post-emergence, 312 h, read-out: Velvetleaf damage rating; for pest or weed control at 15.625 g/ha: 15.625 g ai/ha, evaluated after 13 days (100=total damage to plant; 0=no damage to plant); for pest or weed control at 62.5 g/ha: 62.5 g ai/ha; for pest or weed control at 62.5 g/ha / pest or weed control at 250 g/ha: evaluated after 13 days, 100=total damage to plant, 0=no damage to plant; for pest or weed control at 250 g/ha: 250 g ai/ha
# Method in brief: (§2)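 Pot-grown seedlings, 8 days old, raised in a glasshouse at 24/16 °C day/night with 14 h light and 65% humidity, were sprayed post-emergence with test compound in acetone/water (50:50) plus 0.5% Tween 20 at 15.625, 62.5 or 250 g/ha. Damage was scored visually 13 days later on a 0–100 scale (100 = total damage).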
# corn (Zea mays) [8] = assay: Test G Post-Emergence Protocol; conditions: Zea mays, post-emergence, 312 h, read-out: Corn damage rating; for plant injury at 15.625 g/ha: 15.625 g ai/ha, evaluated after 13 days (100=total damage to plant; 0=no damage to plant); for plant injury at 62.5 g/ha: 62.5 g ai/ha; for plant injury at 62.5 g/ha / plant injury at 250 g/ha: evaluated after 13 days, 100=total damage to plant, 0=no damage to plant; for plant injury at 250 g/ha: 250 g ai/ha
# Method in brief: as §2
# [9] = tested on: giant foxtail (Setaria faberi); assay: Test G Post-Emergence Protocol; conditions: Setaria faberi, post-emergence, 312 h, read-out: Foxtail, Giant damage rating; for pest or weed control at 15.625 g/ha: 15.625 g ai/ha, evaluated after 13 days (100=total damage to plant; 0=no damage to plant); for pest or weed control at 62.5 g/ha: 62.5 g ai/ha; for pest or weed control at 62.5 g/ha / pest or weed control at 250 g/ha: evaluated after 13 days, 100=total damage to plant, 0=no damage to plant; for pest or weed control at 250 g/ha: 250 g ai/ha
# Method in brief: as §2
# [10] = tested on: barnyardgrass (Echinochloa crus-galli); assay: Test G Post-Emergence Protocol; conditions: Echinochloa crus-galli, post-emergence, 312 h, read-out: Barnyardgrass damage rating; for pest or weed control at 15.625 g/ha: 15.625 g ai/ha, evaluated after 13 days (100=total damage to plant; 0=no damage to plant); for pest or weed control at 62.5 g/ha: 62.5 g ai/ha; for pest or weed control at 62.5 g/ha / pest or weed control at 250 g/ha: evaluated after 13 days, 100=total damage to plant, 0=no damage to plant; for pest or weed control at 250 g/ha: 250 g ai/ha
# Method in brief: as §2
# [11] = tested on: ivy-leaved morning glory (Ipomoea hederacea); assay: Test G Post-Emergence Protocol; conditions: Ipomoea, post-emergence, 312 h, read-out: Morningglory, Ivy-leaved damage rating; for pest or weed control at 15.625 g/ha: 15.625 g ai/ha, evaluated after 13 days (100=total damage to plant; 0=no damage to plant); for pest or weed control at 62.5 g/ha: 62.5 g ai/ha; for pest or weed control at 62.5 g/ha / pest or weed control at 250 g/ha: evaluated after 13 days, 100=total damage to plant, 0=no damage to plant; for pest or weed control at 250 g/ha: 250 g ai/ha
# Method in brief: as §2
# [12] = tested on: redroot pigweed (Amaranthus retroflexus); assay: Test G Post-Emergence Protocol; conditions: Amaranthus retroflexus, post-emergence, 312 h, read-out: Pigweed, Redroot damage rating; for pest or weed control at 15.625 g/ha: 15.625 g ai/ha, evaluated after 13 days (100=total damage to plant; 0=no damage to plant); for pest or weed control at 62.5 g/ha: 62.5 g ai/ha; for pest or weed control at 62.5 g/ha / pest or weed control at 250 g/ha: evaluated after 13 days, 100=total damage to plant, 0=no damage to plant; for pest or weed control at 250 g/ha: 250 g ai/ha
# Method in brief: as §2
SMILES,pest or weed control at 15.625 g/ha [1],pest or weed control at 62.5 g/ha [1],pest or weed control at 250 g/ha [1],plant injury at 15.625 g/ha (corn (Zea mays) [2]),plant injury at 62.5 g/ha (corn (Zea mays) [2]),plant injury at 250 g/ha (corn (Zea mays) [2]),pest or weed control at 15.625 g/ha [3],pest or weed control at 62.5 g/ha [3],pest or weed control at 250 g/ha [3],pest or weed control at 15.625 g/ha [4],pest or weed control at 62.5 g/ha [4],pest or weed control at 250 g/ha [4],pest or weed control at 15.625 g/ha [5],pest or weed control at 62.5 g/ha [5],pest or weed control at 250 g/ha [5],pest or weed control at 15.625 g/ha [6],pest or weed control at 62.5 g/ha [6],pest or weed control at 250 g/ha [6],pest or weed control at 15.625 g/ha [7],pest or weed control at 62.5 g/ha [7],other results
CN1C[C@H](c2ccc(C(F)(F)F)cc2)[C@@H](C(=O)Nc2ccc[n+]([O-])c2C(F)(F)F)C1=O (racemic) [Compound 1813],0%,0%,30%,0%,0%,0%,0%,10%,90%,0%,0%,10%,0%,0%,20%,0%,0%,20%,0%,0%,pest or weed control at 250 g/ha [7]: 10%; plant injury at 15.625 g/ha (corn (Zea mays) [8]): 0%; plant injury at 62.5 g/ha (corn (Zea mays) [8]): 0%; plant injury at 250 g/ha (corn (Zea mays) [8]): 0%; pest or weed control at 15.625 g/ha [9]: 0%; pest or weed control at 62.5 g/ha [9]: 0%; pest or weed control at 250 g/ha [9]: 20%; pest or weed control at 15.625 g/ha [10]: 0%; pest or weed control at 62.5 g/ha [10]: 0%; pest or weed control at 250 g/ha [10]: 0%; pest or weed control at 15.625 g/ha [11]: 0%; pest or weed control at 62.5 g/ha [11]: 10%; pest or weed control at 250 g/ha [11]: 40%; pest or weed control at 15.625 g/ha [12]: 0%; pest or weed control at 62.5 g/ha [12]: 0%; pest or weed control at 250 g/ha [12]: 20%
Cc1c(F)cccc1NC(=O)[C@@H]1C(=O)N(C)C[C@H]1c1ccnc(OCC(F)(F)F)c1 (racemic) [Compound 1802],0%,20%,70%,0%,0%,70%,70%,90%,90%,10%,70%,90%,0%,0%,40%,0%,10%,30%,0%,40%,pest or weed control at 250 g/ha [7]: 70%; plant injury at 15.625 g/ha (corn (Zea mays) [8]): 0%; plant injury at 62.5 g/ha (corn (Zea mays) [8]): 0%; plant injury at 250 g/ha (corn (Zea mays) [8]): 60%; pest or weed control at 15.625 g/ha [9]: 40%; pest or weed control at 62.5 g/ha [9]: 70%; pest or weed control at 250 g/ha [9]: 80%; pest or weed control at 15.625 g/ha [10]: 0%; pest or weed control at 62.5 g/ha [10]: 60%; pest or weed control at 250 g/ha [10]: 70%; pest or weed control at 15.625 g/ha [11]: 0%; pest or weed control at 62.5 g/ha [11]: 0%; pest or weed control at 250 g/ha [11]: 0%; pest or weed control at 15.625 g/ha [12]: 0%; pest or weed control at 62.5 g/ha [12]: 0%; pest or weed control at 250 g/ha [12]: 40%
CN1C[C@H](c2cccc(C(F)(F)F)c2)[C@@H](C(=O)Nc2cnccc2[N+](=O)[O-])C1=O (racemic) [Compound 1731],0%,0%,0%,0%,0%,0%,0%,0%,20%,0%,0%,0%,0%,0%,0%,0%,0%,0%,0%,0%,pest or weed control at 250 g/ha [7]: 0%; plant injury at 15.625 g/ha (corn (Zea mays) [8]): 0%; plant injury at 62.5 g/ha (corn (Zea mays) [8]): 0%; plant injury at 250 g/ha (corn (Zea mays) [8]): 0%; pest or weed control at 15.625 g/ha [9]: 0%; pest or weed control at 62.5 g/ha [9]: 0%; pest or weed control at 250 g/ha [9]: 0%; pest or weed control at 15.625 g/ha [10]: 0%; pest or weed control at 62.5 g/ha [10]: 0%; pest or weed control at 250 g/ha [10]: 0%; pest or weed control at 15.625 g/ha [11]: 0%; pest or weed control at 62.5 g/ha [11]: 0%; pest or weed control at 250 g/ha [11]: 0%; pest or weed control at 15.625 g/ha [12]: 0%; pest or weed control at 62.5 g/ha [12]: 0%; pest or weed control at 250 g/ha [12]: 10%
